Measurements taken from US20130283404A1, “EPIGENETICS IN AUTOIMMUNITY” (The Regents of the University of Michigan, priority 2012, published 2013).

Experiments:
[1] = test system: dnPKCδ/CD2rtTA mice; assay: Kidney histopathology in double transgenic dnPKCδ/CD2rtTA mice given Doxy; format: in vivo, mouse; details: double transgenic dnPKCδ/CD2rtTA mice pretreated with Doxy
Protocol: Double transgenic dnPKCδ/CD2rtTA mice were given 4 mg/ml dox/5% sucrose in their drinking water for 20 wks. Double transgenic animals treated with 5% sucrose were used as controls. At indicated times, their kidneys and lungs were removed. Kidneys were divided in two, one half embedded in O.C.T. (Thermo Fisher) and frozen in liquid nitrogen while the other half and the lung were fixed in 10% formalin, paraffin embedded and stained with hematoxylin and eosin. Five micron sections were cut from the frozen tissue and fixed for 10 minutes in ice cold acetone. 10% horse serum/PBS was used to block non-specific sites and the sections were stained with a 1:50 dilution of biotin-Goat anti-mouse IgG (Fc specific) antibody (US Biologicals)/FITC-Streptavidin (BD Pharmingen) to detect IgG depositions.
Immunohistochemical staining noted IgG deposition along capillary walls and in the mesangial region of glomeruli from transgenic animals pretreated with Doxy (FIG. 11). It was also observed perivascular infiltration of leukocytes in glomeruli (FIG. 12), lungs (FIG. 13) and liver of transgenic animals pretreated with Doxy.

[2] = test system: dnPKCδ/CD2rtTA mice; assay: Serum IgG anti-dsDNA antibodies by ELISA in double transgenic mice given dox; format: in vivo, mouse; details: dox in drinking water, serially over time, versus sucrose controls
Protocol: Serum anti-dsDNA IgG antibodies were measured by ELISA. Microtiter plates (Costar, Corning, N.Y.) were coated overnight at 4° C. with 10 μg plasmid dsDNA, then 5 μL of mouse sera were added to each well in 100 μl of buffer and incubated overnight at 4° C. Bound anti-dsDNA antibody was detected by chemiluminescence using HRP-goat anti-mouse IgG (Bethyl Lab Inc) at 450 nm in a spectrophotometer equipped with Softmax Pro software (Molecular Devices, Sunnyvale, Calif.). Murine monoclonal anti-dsDNA antibody (Chemicon) was used for the standard curve.
Experiments were conducted during the development of embodiments of the present invention to determine if the double transgenic develop anti-dsDNA antibodies when given dox. The double transgenic mice were given sucrose or sucrose plus dox in their drinking water, and IgG anti-dsDNA antibodies were measured serially over time by ELISA.

[3] = test system: ERK; assay: ERK phosphorylation in CD3+ splenic T cells of dnPKCδ/CD2-rtTA mice receiving dox; format: in vivo, mouse; details: dox in drinking water two weeks, relative to sucrose controls
Protocol: (§1) Double transgenic mice were generated and maintained in a specific pathogen-free environment. All protocols were approved by the University of Michigan Committee on the Use and Care of Animals (UCUCA). Pups were weaned at 20 days of age and genotyped for the presence of both genes by PCR. Transgene expression was induced by giving 2 mg/ml of dox in the drinking water and supplemented with 5% of sucrose. Double transgenic control animals were given 5% sucrose alone. All the double transgenic mice were developmentally normal. Protein and blood in mouse urine was measured using Chemstrip 6 dipsticks (Roche, Madison, Wis.).
20 μg of protein was diluted in Laemmli loading buffer and denatured by boiling for 5 min followed by electrophoresis in 10-12% SDS-polyacrylamide gels. The fractionated proteins were then electrophoretically transferred to nitrocellulose membranes (Schleicher and Schuell, Keene, N.H.) and stained with Ponceau S (Sigma) to verify equal loading. Membranes were blocked for 1 h in Tris-buffered saline (TBS) containing 0.1% Tween (Sigma) and 5% nonfat dry milk (Bio-Rad). […] For quantitative studies, the bands on X-ray films were scanned and analyzed with ImageQuant 5.2 software (Amersham). […]

[4] = test system: Dnmt1; assay: Dnmt1 mRNA by real time RT-PCR in spleens of double transgenic mice given dox; format: in vivo, mouse; details: dox plus sucrose 2 weeks, spleen RNA
Protocol: as §1
(§2) 150 ng of RNA was converted to cDNA and amplified in one step using a Quanti-Tect SYBR Green RT-PCR kit (Qiagen). CD70 transcripts were quantitated by real-time RT-PCR using a Rotor-Gene 3000 (Corbett Research, Sydney, Australia) and previously published protocols (Gorelik, 2007; herein incorporated by reference in its entirety). The amplification conditions were: 30 min at 50° C., 15 min at 95° C., 40 cycles of 15s at 94° C., 20s at 56° C. and 30s at 72° C. followed by a final extension at 72° for 5 min. Transcript expression levels were normalized to GAPDH. […]
Double transgenic mice were given dox plus sucrose or sucrose alone for 2 weeks. The mice were then sacrificed, RNA isolated from their spleens, then Dnmt1 mRNA levels were measured by real time RT-PCR. […]

[5] = test system: CD70; assay: CD70 mRNA in CD3+ T cells of dnPKCδ/CD2-rtTA mice with and without dox; format: in vivo, mouse; details: dox 2 weeks, relative to controls
Protocol: as §1, §2

[6] = target: T1, PKCδ (Homo sapiens, UniProt Q05655); assay: PKCδ phosphorylation (p-T505, p-Y311) by immunoblot in PMA-stimulated CD4+ T cells; format: cell-based
T1 construct: Following stimulation, whole cell lysates were obtained; endogenous in cells; host or cells: primary CD4+ T cells from healthy donors or lupus patients
Protocol: Peripheral blood mononuclear cells were isolated from healthy donors or SLE patients by Ficoll-Hypaque density gradient centrifugation. CD4+ T cells were then purified by negative selection using magnetic beads (CD4+ T cell isolation kit; Miltenyi Biotec, Auburn, Calif.) as previously reported (Gorelik, 2007; herein incorporated by reference in its entirety).
(§3) CD4+ T cells were suspended in RPMI 1640 supplemented with 10% fetal calf serum, 2 mM glutamine and penicillin/streptomycin then left unstimulated or stimulated with 50 ng/ml PMA for 15 min at 37° C. Treatment with peroxynitrite was performed at the concentrations and time specified in each experiment and before PMA stimulation. Following stimulation, whole cell lysates were obtained and protein content quantified using the BCA Protein Assay (Pierce, Rockford, Ill.).
(§4) Whole cell protein was fractionated by SDS-PAGE, transferred to nitrocellulose membranes (Schleicher and Schuell, Keene, N.H.) then stained with Ponceau S (Sigma) to verify equal protein loading between lanes. After incubation with the kinase specific antibody then the secondary antibody, protein bands were visualized by chemiluminescence (Amersham, Piscataway, N.J.). The bands on X-ray films were scanned and analyzed with ImageQuant 5.2 software (Amersham) for quantification. Where indicated, blots were stripped and re-probed with the corresponding antibody. Values were normalized to β-actin or the corresponding kinase as indicated.
Experiments were performed during development of embodiments of the present invention to determine if ONOO^− causes the PKCδ T^505 phosphorylation defect observed in lupus T cells. CD4+ T cells from healthy subjects were treated with increasing concentrations of ONOO^− then stimulated with PMA.
The phosphorylation of Y^311 in the PKCδ molecule was also examined, because this amino acid is phosphorylated in cells undergoing oxidative stress (Steinberg, 2004; Kikkawa, 2002; herein incorporated by reference in their entireties). […] It is important to note that p-Y^311 is almost undetectable in resting CD4+ T cells (not shown) similar to p-T^505. […] While PMA promotes phosphorylation on T^505, Y^311 is almost insensitive. In contrast, ONOO^− increases Y311 phosphorylation with a concomitant decrease in p-T^505.

[7] = test system: 3-nitrotyrosine proteins; assay: 3NO2-tyrosine protein derivative formation by immunoblot in CD4+ T cells; format: cell-based, human; details: CD4+ T cells from a healthy donor, increasing ONOO− then PMA
Protocol: as §3, §4
Experiments were conducted during development of embodiments of the present invention to confirm the effect of ONOO^− by measuring 3NO2-tyrosine protein derivative formation. CD4+ T cells from a healthy donor were treated with increasing ONOO— concentrations then stimulated with PMA. […]

[8] = target: T2, PKCθ (Homo sapiens, UniProt Q04759); assay: PKCθ activation loop phosphorylation by immunoblot in PMA-stimulated CD4+ T cells; format: cell-based; details: CD4+ T cells from healthy subjects, increasing ONOO− then PMA
T2 construct: Following stimulation, whole cell lysates were obtained; endogenous in cells; host or cells: primary CD4+ T cells from healthy donors

[9] = test system: ERK; assay: PMA-stimulated ERK phosphorylation by immunoblot in CD4+ T cells; format: cell-based, human; details: CD4+ T cells from healthy controls, increasing ONOO− then PMA
Protocol: as §3, §4
This agrees with our previous results showing that PKCδ T505 phosphorylation is upstream of ERK (Gorelik, 2007; herein incorporated by reference in its entirety) and its impairment decreases ERK pathway signaling.

[10] = target: T1, PKCδ; assay: PKCδ nitration: anti-nitrotyrosine immunoprecipitation and immunoblot of CD4+ T cell lysates; format: cell-based; details: control T cells treated with ONOO−
Protocol: Immunoprecipitations were performed according to the manufacturer's instructions. Lysates from normal or lupus T cells were incubated with the agarose-conjugated anti-nitrotyrosine antibody overnight at 4° C. Following centrifugation an aliquot of the supernatant (containing non-nitrated proteins) and the beads were resuspended in Laemmli sample buffer and boiled for 5 min. Proteins from each fraction were then analyzed in parallel by SDS-PAGE and immunoblot analysis.
Experiments were conducted during development of embodiments of the present invention to determine whether PKCδ is inactivated in T cells from patients with active lupus through nitration, similar to ONOO treated T cells. CD4+ T cells from 6 lupus patients with active disease (SLEDAI≧4) were stimulated with PMA and nitrated proteins immunoprecipitated from the lysates with anti-3NO2-Tyr antibodies. […] Total and T505 phosphorylated PKCδ content were then compared by immunoblotting.
Nitrated and non-nitrated PKCδ were analyzed as the total PKCδ content in the precipitate and supernatant respectively. The levels of total PKCδ (supernatant+immunoprecipitate) were similar in untreated or ONOO^− treated T cells from control donors and lupus patients (FIGS. 5 A and B). […]

[11] = test system: PKCα; assay: PKCα activation loop phosphorylation by immunoblot in PMA-stimulated CD4+ T cells; format: cell-based, human; details: CD4+ T cells from healthy subjects, increasing ONOO− then PMA
[12] = PMA stimulation, untreated (0 μM ONOO−) CD4+ T cells

T1 sequence (Q05655 whole entry): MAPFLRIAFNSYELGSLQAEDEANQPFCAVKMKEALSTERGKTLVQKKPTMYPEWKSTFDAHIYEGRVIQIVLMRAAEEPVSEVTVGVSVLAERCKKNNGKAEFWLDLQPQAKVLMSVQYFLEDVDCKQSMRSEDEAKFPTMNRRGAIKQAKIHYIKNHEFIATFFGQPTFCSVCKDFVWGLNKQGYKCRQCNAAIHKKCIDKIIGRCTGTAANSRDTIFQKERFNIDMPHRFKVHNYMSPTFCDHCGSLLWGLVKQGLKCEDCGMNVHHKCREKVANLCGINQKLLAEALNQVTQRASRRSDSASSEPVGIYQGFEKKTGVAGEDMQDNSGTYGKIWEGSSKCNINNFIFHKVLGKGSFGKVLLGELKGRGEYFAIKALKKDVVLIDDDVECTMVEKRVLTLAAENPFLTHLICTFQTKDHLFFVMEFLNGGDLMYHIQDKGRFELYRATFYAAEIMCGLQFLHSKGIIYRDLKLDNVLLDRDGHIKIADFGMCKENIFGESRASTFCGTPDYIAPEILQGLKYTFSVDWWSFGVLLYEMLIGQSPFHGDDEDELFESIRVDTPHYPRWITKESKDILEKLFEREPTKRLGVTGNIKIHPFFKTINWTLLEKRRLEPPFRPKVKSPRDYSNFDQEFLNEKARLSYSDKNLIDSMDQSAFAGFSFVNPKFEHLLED
T2 sequence (Q04759 whole entry): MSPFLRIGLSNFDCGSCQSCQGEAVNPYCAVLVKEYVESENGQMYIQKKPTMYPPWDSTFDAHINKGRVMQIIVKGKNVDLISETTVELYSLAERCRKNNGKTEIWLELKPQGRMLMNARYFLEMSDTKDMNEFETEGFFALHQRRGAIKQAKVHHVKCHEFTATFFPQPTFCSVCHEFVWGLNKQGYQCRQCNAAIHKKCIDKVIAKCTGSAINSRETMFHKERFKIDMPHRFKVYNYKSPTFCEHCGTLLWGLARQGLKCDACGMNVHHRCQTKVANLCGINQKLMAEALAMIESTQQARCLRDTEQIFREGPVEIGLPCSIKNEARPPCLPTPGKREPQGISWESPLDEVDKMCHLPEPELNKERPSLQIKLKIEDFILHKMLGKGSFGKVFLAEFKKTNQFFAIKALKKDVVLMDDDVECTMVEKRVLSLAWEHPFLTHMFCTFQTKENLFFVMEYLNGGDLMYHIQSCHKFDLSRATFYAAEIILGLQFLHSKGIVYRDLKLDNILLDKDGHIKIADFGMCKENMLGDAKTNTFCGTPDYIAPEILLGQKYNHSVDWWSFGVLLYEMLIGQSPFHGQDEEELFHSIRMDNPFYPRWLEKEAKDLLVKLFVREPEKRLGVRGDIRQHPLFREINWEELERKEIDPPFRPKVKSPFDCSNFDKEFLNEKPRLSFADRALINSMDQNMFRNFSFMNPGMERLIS

Structure (SMILES): C[C@H]1c2cccc(O)c2C(O)=C2C(=O)[C@]3(O)C(O)=C(C(N)=O)C(=O)[C@@H](N(C)C)[C@@H]3[C@@H](O)[C@@H]21 [dox, doxycycline]
- kidney histology [1]: evidence of glomerulonephritis
- IgG anti-dsDNA antibodies [2]: significantly higher levels
- ERK phosphorylation following PMA stimulation [3]: Reduced
- decrease in Dnmt1 transcripts [4]: approximately 45%
- CD70 mRNA expression [5]: significantly increased

Structure (SMILES): CCCCCCCCCCCCCC(=O)O[C@@H]1[C@@H](C)[C@@]2(O)[C@@H](C=C(CO)C[C@]3(O)C(=O)C(C)=C[C@@H]23)[C@@H]2C(C)(C)[C@]12OC(C)=O [PMA]
- PKCδ T505 phosphorylation [6, 12]: substantial increase
- PKCδ Y311 phosphorylation [6, 12]: no appreciable effect

Structure (SMILES): O=NOO [ONOO^−, peroxynitrite]
- 3-nitrotyrosine derivative formation [7]: concentration-dependent increase
- PKC θ activation loop phosphorylation [8]: not appreciably affected
- PKCδ T505 phosphorylation ([6]; CD4+ T cells from healthy subjects, increasing ONOO− (20-80 μM, 15 min) then PMA): concentration dependent decrease
- PKCδ Y311 phosphorylation ([6]; PMA stimulated CD4+ T cells, increasing ONOO−): concentration-dependent increase
- PMA-stimulated ERK phosphorylation [9]: declines
- nitrated PKCδ fraction T505 phosphorylated after PMA stimulation [10]: 6%
- PKCδ nitrated ([10]; PMA stimulated): 74%
- PKC α activation loop phosphorylation [11]: not appreciably affected
